# Legend:
# [1] = system: NFκB; assay: NFκB assay in microglia; type: cell-based, mouse; settings: 2 hrs; 20 μM doxycycline, 1 μM TRAM-34; FIG. 2E
# Procedure: The detection of cells with active NFκB was performed according to the method described by Franciosi, S., et al.; (2006) J Neurosci 26, 11652-11664. Briefly, microglia were plated as described above and treated with activators for 2 hrs. Cells were fixed and stained with anti-NF-κBp65 antibody (1:250, Chemicon) and with the nuclear dye DAPI.
# [2] = system: microglia; assay: Assay for nitric oxide (nitrite) in microglia conditioned medium; type: cell-based, mouse; settings: 24 hr
# [3] = Physiological parameters by I-STAT in venous blood of MCAO rats; type: in vivo, rat; settings: After Reperfusion, ±SD
# [4] = as above; type: in vivo, rat; settings: ±SD
# Procedure: […] […] Slices were then fixed in 10% buffer formalin embedded in paraffin and sectioned at 5 Sections were stained with hematoxylin & eosin and scanned. The resulting jpg images were analyzed in Adobe Photoshop CS3 for infarct area using the Magnetic Lasso tool to outline the area and the Histogram tool to determine the number of pixels in the respective area. Percent infarct for each slice was calculated as: (pixels in […]/pixels in whole control hemisphere)×100. Percentage of total infarct area of whole hemisphere was calculated as: (summation of pixels in infarct from 8 slices/summation of pixels in whole control hemisphere from 8 slices)×100. The degree of brain shrinkage was calculated from the same data.
# [5] = system: hippocampal neurons; assay: Indirect neurotoxicity of conditioned medium from AβO-treated microglia on hippocampal neurons; type: cell-based, mouse; settings: 25% CM, 24 hrs
# Procedure: Hippocampal neuronal cultures were prepared from newborn wild type C57BL/6J mice according to the method of Xiang et al (26). Neurons were cultured in NB/B27 at a density of 2.5×10^5 cells/well in 12-well plates or 8×10^5 cells/well in 6-well plates for at least 14 days before they were treated with microglia CM.
# Hippocampal neurons were prepared as described above and were plated onto 96-well plate at a density of 6×10^4 cells/well and cultured for 14 days. CM from microglia cultures was added onto neurons with indicated dilutions, and cultures were incubated for 24 hrs.
# For immunofluorescent staining of neurons, cultures were fixed in 4% paraformaldehyde and stained with anti-PSD95 (1:200, Cell Signaling), anti-MAP2 (1:500, Chemicon) and anti-acetylated α-tubulin (1:250, Zymed). […] Immunostained images were observed under a Nikon Eclipse E600 microscope and photographed by a digital camera (SPOT RTke, SPOT Diagnostics, Sterling Heights, Mich.).
# For quantification of the PSD95-immunoreactive puncta along the dendrites, photomicrographs of PSD95 immunostained cultures were randomly taken from each culture condition. The images were transformed to 8 bit gray scale and analyzed with the Image J program. The number of puncta in each photomicrograph was counted and normalized by dendritic length. The photography and analysis were conducted in an investigator-blinded manner
# [6] = system: p38MAPK; assay: p38MAPK phosphorylation in microglia (Western blot); type: cell-based, mouse; settings: doxycycline 20 μM, TRAM-34 1 μM, FIG. 2D
# Procedure: Primary microglia cultures derived from newborn C57BL/6J mice were prepared from mixed glia cultures with the “shaking off” method described by Maezawa, I., et al.; (2006) FASEB J 20, 797-799. […] To obtain conditioned medium (CM) for treating neurons, microglia were first cultured in 24-well culture plates at a density of 1.3×10^5 cells/cm^2 for 24 hrs in DMEM with 10% fetal bovine serum (DMEM10). Cultures were washed extensively and changed to the Neurobasal medium with B27 supplement (NB/B27, Invitrogen) without serum and cultured for another 24 hrs. The NB/B27-based microglia CMs were collected, briefly centrifuged, and used immediately or frozen for future uses.
# To obtain lysates, cells or tissues were washed with ice-cold PBS and incubated with a buffer containing 50 mmol/L Tris-HCl (pH 7.4), 150 mmol/L NaCl, 2% SDS, proteinase inhibitor cocktail (Sigma), and phosphatase inhibitor cocktail (Sigma). Lysates were briefly sonncated and cleared by centrifugation at 50,000 rpm for 10 min. Equivalent amounts of protein were analyzed by Tris/HCL gel electrophoresis. Proteins were transferred to polyvinylidene difluoride membranes and probed with antibodies. Visualization was performed using enhanced chemiluminescence (ECL, Amersham Pharmacia, Piscataway, N.J.).
# The following primary antibodies (dilutions) were used: anti-p38MAPK (1:1000, Cell Signaling Technology, Boston, Mass.), anti-phospho-p38MAPK (1:1000, Cell Signaling Technology), anti-Synaptophysin (1:1000, Abcam), anti-PSD95 (1:1000, cell signaling), anti-GRIP 1 (1:1000, UpState), anti-MAP2 (1:1000, Chemicon), anti-acetylated α-tubulin (1:2000, Zymed), and anti-β-actin (1:3000, Sigma). Secondary antibodies were HRP-conjugated anti-rabbit, anti-goat, or anti-mouse antibody (1:3000 Amersham).
# [7] = After Reperfusion, TRAM-34 10 mg/kg
# [8] = After Reperfusion, TRAM-34 40 mg/kg
# [9] = Day-7 after MCAO, TRAM-34 10 mg/kg
# [10] = Day-7 after MCAO, TRAM-34 40 mg/kg
structure (smiles),measurement,setting,value
"Clc1ccccc1C(c1ccccc1)(c1ccccc1)n1cccn1 [TRAM-34, 1-[(2-chlorophenyl)diphenylmethyl]-1H-pyrazole]",AβO-induced NFκB activation (p65-immunoreactive cells),[1],prevented
same,LPS-induced NFκB activation,[1],not significantly
same,"microglia NO production, compound alone",[2]; without AβO,did not affect NO production
same,AβO-induced increase of microglia NO production,"[2]; 20 μM doxycycline, 1 μM TRAM-34, FIG. 2F",prevented
same,BUN,[3]; TRAM-34 10 mg/kg,12.8 ± 7.2 mg/dL
same,Glucose,[3]; TRAM-34 10 mg/kg,179.2 ± 48.2 mg/dL
same,Na^+,[3]; TRAM-34 10 mg/kg,134.4 ± 2.3 mmol/L
same,BUN,[3]; TRAM-34 40 mg/kg,22.2 ± 4.0 mg/dL
same,Glucose,[3]; TRAM-34 40 mg/kg,171.8 ± 54.3 mg/dL
same,HCO3^−,[3]; TRAM-34 40 mg/kg,32.5 ± 5.7 mmol/L
same,pH,[3]; TRAM-34 40 mg/kg,7.4 ± 0.13
same,HCO3^−,[4]; [7],33.8 ± 6.4 mmol/L
same,Hemoglobin,[4]; [7],14.3 ± 1.5 g/dL
same,K^+,[4]; [7],6.3 ± 1.1 mmol/L
same,pCO2,[4]; [7],66.6 ± 28.3 mm Hg
same,pH,[4]; [7],7.34 ± 0.1
same,Hemoglobin,[4]; [8],14.5 ± 1.4 g/dL
same,K^+,[4]; [8],5.7 ± 0.5 mmol/L
same,Na^+,[4]; [8],135.5 ± 2.3 mmol/L
same,pCO2,[4]; [8],60.8 ± 33.4 mm Hg
same,BUN,[4]; [9],18.7 ± 6.8 mg/dL
same,Glucose,[4]; [9],185.2 ± 41.2 mg/dL
same,HCO3^−,[4]; [9],29.7 ± 2.5 mmol/L
same,Hemoglobin,[4]; [9],12.7 ± 2.1 g/dL
same,K^+,[4]; [9],4.8 ± 1.1 mmol/L
same,Na^+,[4]; [9],137.7 ± 4.1 mmol/L
same,pCO2,[4]; [9],58.1 ± 12.7 mm Hg
same,pH,[4]; [9],7.3 ± 0.06
same,BUN,[4]; [10],19.6 ± 4.7 mg/dL
same,Glucose,[4]; [10],201.1 ± 40.1 mg/dL
same,HCO3^−,[4]; [10],29.2 ± 1.3 mmol/L
same,Hemoglobin,[4]; [10],13.3 ± 1.5 g/dL
same,K^+,[4]; [10],4.2 ± 0.3 mmol/L
same,Na^+,[4]; [10],138.8 ± 3.5 mmol/L
same,pCO2,[4]; [10],49.3 ± 7.3 mm Hg
same,pH,[4]; [10],7.4 ± 0.07
same,dendritic morphology of neurons after CM from AβO-treated microglia co-incubated with inhibitor,[5],did not alter the dendritic morphology
same,"levels of Ac-TN, MAP2, PSD95, and GRIP1 after CM from AβO-treated microglia co-incubated with inhibitor",[5]; Western blot,did not cause significant decreases
same,AβO-CM-induced reduction of PSD95-immunoreactive puncta,"[5]; microglia co-treated with 20 μM doxycycline or 1 μM TRAM-34, FIG. 6D",prevented
same,LPS-induced p38MAPK phosphorylation,"[6]; LPS 100 ng/ml, 30 minutes",no significant difference
same,AβO-induced p38MAPK phosphorylation,[6]; microglia treated 30 minutes,no significant difference
